Measurements from patent publication US7807701B2, “Dibenzylamine compounds and pharmaceutical use thereof” (Japan Tobacco Inc., priority 2002, dated 2010).

Assay: Concomitant use test with simvastatin in rabbits on high cholesterol food
Type: in vivo, Japanese white rabbits
Conditions: high cholesterol food for 15 days with simvastatin (0.002%) and/or Example 168 (0.2%), control group = 100%
Excerpt: For the experiment, 10-week-old male Japanese white rabbits (manufactured by KITAYAMA LABES Co., Ltd.) were used. The animal was acclimated on normal food (RC-4, manufactured by Oriental Bio-Service Co.) and fasted for 24 hr and a high cholesterol food (0.25% cholesterol-added RC-4, manufactured by Oriental Bio-Service Co.) was given by 100 g/day per rabbit (preliminary feeding) for 3 days. On the next day of day 3 of preliminary feeding, blood was taken from the auricular artery before feeding, and the animals were grouped by 6 rabbits per group based on the parameters (HDL cholesterol content, total cholesterol content, triglyceride content) of plasma and body weight.
Foods were prepared (manufactured by Oriental Bio-Service Co.) by adding simvastatin (0.002%), compound (0.2%) of Example 168, or simvastatin (0.002%)+compound (0.2%) of Example 168 to a high cholesterol food, and each food was given to the grouped animals by 100 g/day per rabbit for 15 days. At 8 hr after feeding on day 15, the total blood was taken from the carotid artery under anesthesia, HDL cholesterol content, total cholesterol content and ApoA-I content in plasma were measured. The arteriosclerosis index was calculated from [(total cholesterol content-HDL cholesterol content)/HDL cholesterol content]. Furthermore, the HDL3 fraction was separated from plasma by ultracentrifugation and the cholesterol content of the fraction was measured. In Table, arteriosclerotic index, ApoA-1 content and HDL3 cholesterol content are shown based on the value of the control group as 100%.

In the case of CCC(C)(C)C(=O)O[C@H]1C[C@@H](C)C=C2C=C[C@H](C)[C@H](CC[C@@H]3C[C@@H](O)CC(=O)O3)[C@H]21 [simvastatin, reference compound], the “Arteriosclerotic index (%)” value is reported as 53%, the “HDL3 cholesterol content (%)” value (plasma HDL3 fraction) is reported as 128% and the “ApoA-I content (%)” value (plasma) is reported as 114%.
